We go through 29 compounds from patent US6750228B1, “Aromatic sulfone hydroxamic acid metalloprotease inhibitor” (priority 1997, dated 2004).

Structures can show the parent of a compound that is named as a salt. Where two headings read alike, the source gives them in different places. A value given as a limit tells only on which side of the number the result lay.

Common to all, as to test: biochemical
In one experiment the target is T1, MMP-2 (Homo sapiens, UniProt P08253).
T1 construct: made in house; provided by Dr. Gregory Goldberg, Washington University
T1 sequence (P08253 110-660): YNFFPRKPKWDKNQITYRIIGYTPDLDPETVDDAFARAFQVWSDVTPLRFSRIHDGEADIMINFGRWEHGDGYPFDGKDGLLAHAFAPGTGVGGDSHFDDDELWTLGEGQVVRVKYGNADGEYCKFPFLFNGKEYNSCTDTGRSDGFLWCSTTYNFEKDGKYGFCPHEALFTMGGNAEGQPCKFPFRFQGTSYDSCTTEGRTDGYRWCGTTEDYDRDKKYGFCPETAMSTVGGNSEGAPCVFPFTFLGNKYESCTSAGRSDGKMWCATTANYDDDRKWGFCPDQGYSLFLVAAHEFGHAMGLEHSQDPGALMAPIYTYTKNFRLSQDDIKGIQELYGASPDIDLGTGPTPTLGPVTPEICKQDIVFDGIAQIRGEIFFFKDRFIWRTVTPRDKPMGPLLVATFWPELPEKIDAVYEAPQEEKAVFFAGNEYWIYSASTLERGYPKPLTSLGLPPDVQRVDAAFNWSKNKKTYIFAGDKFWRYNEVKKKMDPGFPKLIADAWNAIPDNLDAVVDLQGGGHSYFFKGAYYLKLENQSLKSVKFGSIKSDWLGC
The procedure, abridged: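 APMA- or trypsin-activated enzymes were preincubated with inhibitor for 5 min at room temperature, then the fluorogenic substrate MCA-Pro-Leu-Gly-Leu-Dpa-Ala-Arg-NH2 was added to a final 4 μM.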

Another experiment deals with T2, MMP-13 (Homo sapiens, UniProt P45452).
T2 construct: made in house; host or cells: baculovirus / insect cells
The procedure, abridged: (§1)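 Assay buffer 100 mM Tris-HCl, 100 mM NaCl, 10 mM CaCl2, pH 7.5. Activated MMP + inhibitor, 5 min RT; then methoxycoumarin peptide substrate, 4 μM final. Readout fluorescence; IC50 calculated.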

In a further experiment the target is T3, MMP-1 (Homo sapiens, UniProt P03956).
T3 construct: made in house; host or cells: transfected HT-1080 cells (provided by Dr. Harold Welgus, Washington University)
T3 sequence (P03956 100-469): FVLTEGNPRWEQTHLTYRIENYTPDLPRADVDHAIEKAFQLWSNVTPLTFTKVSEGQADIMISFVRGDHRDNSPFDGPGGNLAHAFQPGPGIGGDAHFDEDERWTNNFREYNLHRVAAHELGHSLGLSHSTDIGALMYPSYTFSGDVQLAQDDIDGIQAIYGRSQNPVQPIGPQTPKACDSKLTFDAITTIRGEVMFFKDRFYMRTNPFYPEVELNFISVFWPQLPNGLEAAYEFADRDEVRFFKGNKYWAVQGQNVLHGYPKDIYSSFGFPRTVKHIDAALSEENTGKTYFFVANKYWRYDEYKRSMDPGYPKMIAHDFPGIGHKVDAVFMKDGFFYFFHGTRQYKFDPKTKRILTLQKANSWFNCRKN
The note with it: read-out: MMP-1 IC50. The procedure, abridged: as §1

Setting [1] is: recombinant human MMP-2, MCA peptide substrate 4 μM, pH 7.5, room temperature, read-out: MMP-2 IC50.
Setting [2] is: recombinant human MMP-13, MCA peptide substrate 4 μM, pH 7.5, room temperature, read-out: MMP-13 IC50.
Where [3] appears, read: recombinant human MMP-1, MCA peptide substrate 4 μM, pH 7.5, room temperature.

In general, IC50 refers to the concentration at which inhibition is half-maximal. Consider `CC1CC(C)CN(C(=O)C2CCN(c3ccc(S(=O)(=O)C4(C(=O)NO)CCN(C(=O)CN5CCCC5=O)CC4)cc3)CC2)C1` (stereo not drawn) [Example 314], for which the IC50 at MMP-2 (setting [1]) was above 10000 nM; on MMP-13 (setting [2]), 65 nM; on MMP-1 (setting [3]) it was above 10000 nM.

Turning to `CC1CC(C)CN(C(=O)C2CCN(c3ccc(S(=O)(=O)C4(C(=O)NO)CCOCC4)cc3)CC2)C1` (stereo not drawn) [Example 54], the results for the IC50 at MMP-2 (setting [1]), at MMP-13 (setting [2]) and at MMP-1 (setting [3]) were 5700 nM, 40 nM and above 10000 nM, respectively.

Consider `COc1ccccc1COC1CCC(Oc2ccc(S(=O)(=O)C3(C(=O)NO)CCOCC3)cc2)C1` (stereo not drawn) [Example 740], for which the 50% inhibitory concentration (IC50) at MMP-2 (setting [1]) is 175 nM; on MMP-13 (setting [2]) it was 61 nM; on MMP-1 (setting [3]), above 10000 nM.

As for `O=C(c1ccc(F)cc1)C1CCN(c2ccc(S(=O)(=O)C3(C(=O)NO)CCSCC3)cc2)CC1` [Example 152], the IC50 on MMP-2 (read-out: MMP-2 IC50) was 59 nM; at MMP-13 (read-out: MMP-13 IC50), 2 nM; on MMP-1, above 10000 nM.

Consider `CN(CC1CC1)C(=O)C1CCN(c2ccc(S(=O)(=O)C3(C(=O)NO)CCSCC3)cc2)CC1` [Example 154], for which the IC50 at MMP-2 (setting [1]) is 3700 nM; on MMP-13 (setting [2]) it was 18 nM; on MMP-1 (setting [3]), above 10000 nM.

Consider `N#Cc1ccc(S(=O)(=O)N2CCN(c3ccc(S(=O)(=O)C4(C(=O)NO)CCOCC4)cc3)CC2)cc1` [Example 690], for which the IC50 was 41.8 nM on MMP-2 (setting [1]), 7.3 nM at MMP-13 (setting [2]) and above 10000 nM on MMP-1 (setting [3]).

As for `O=C(NO)C1(S(=O)(=O)c2ccc(N3CCCCC3CCOCc3ccc(Cl)c(Cl)c3)cc2)CCOCC1` (stereo not drawn) [Example 513], the IC50 was above 10000 nM on MMP-2 (setting [1]), 7700 nM at MMP-13 (setting [2]) and above 10000 nM on MMP-1 (setting [3]).

As to `CN(C(=O)C1CCN(c2ccc(S(=O)(=O)C3(C(=O)NO)CCOCC3)cc2)CC1)c1ccccc1` [Example 60], the IC50 at MMP-2 (setting [1]) is 3700 nM; on MMP-13 (setting [2]), 13.9 nM; at MMP-1 (setting [3]), above 10000 nM.

For `CN(Cc1cccnc1)C(=O)C1CCN(c2ccc(S(=O)(=O)C3(C(=O)NO)CCOCC3)cc2)CC1` [Example 497], the concentration for half-maximal inhibition (IC50) on MMP-2 (setting [1]) was 8000 nM; at MMP-13 (setting [2]), 50 nM; on MMP-1 (setting [3]) it was above 10000 nM.

In the case of `CCCCOc1cccc(S(=O)(=O)N2CC(Oc3ccc(S(=O)(=O)C4(C(=O)NO)CCOCC4)cc3)C2)c1` [Example 830], the half-maximal inhibitory concentration (IC50) on MMP-2 (setting [1]) is 2100 nM; at MMP-13 (setting [2]), 17.9 nM; on MMP-1 (setting [3]), above 10000 nM.

Take `O=C(NO)C1(S(=O)(=O)c2ccc(N3CCC(OCc4ccccc4)CC3)cc2)CCOCC1` [Example 165]: the IC50 at MMP-2 (setting [1]) was 48.5 nM; at MMP-13 (setting [2]), 3 nM; at MMP-1 (setting [3]), above 10000 nM.

`CO[C@@H]1CCN(c2ccc(S(=O)(=O)C3(C(=O)NO)CCOCC3)cc2)C1` [Example 533]: the 50% inhibitory concentration (IC50) is 150 nM at MMP-2 (setting [1]), 60 nM at MMP-13 (setting [2]) and above 10000 nM on MMP-1 (setting [3]).

With `CN1CCCN(C2CCN(c3ccc(S(=O)(=O)C4(C(=O)NO)CCOCC4)cc3)CC2)CC1` [Example 807], the IC50 was 1400 nM at MMP-2 (setting [1]), 200 nM at MMP-13 (setting [2]) and above 10000 nM at MMP-1 (setting [3]).

Regarding `COc1ccccc1NC(=O)N1CCC(C(=O)NO)(S(=O)(=O)c2ccc(Oc3ccc(OC(F)(F)F)cc3)cc2)CC1` [Example 357], the IC50 at MMP-2 (setting [1]) is 0.1 nM; at MMP-13 (setting [2]), 0.3 nM; on MMP-1 (setting [3]), above 10000 nM.

Turning to `O=C(NO)C1(S(=O)(=O)c2ccc(N3CCC(Oc4ccccc4)CC3)cc2)CCOCC1` [Example 185, N-Hydroxy-4[[[4-(4-phenoxy)piperidyl]phenyl]sulfonyl]-1-tetrahydropyrancarboxamide], the IC50 on MMP-2 (setting [1]) is 32.6 nM; on MMP-13 (setting [2]), 2.2 nM; on MMP-1 (setting [3]), above 10000 nM.

Regarding `O=C(CS(=O)(=O)c1ccc(Oc2ccncc2)cc1)NO` [Example 227], the half-maximal inhibitory concentration (IC50) on MMP-2 (setting [1]) was 21.7 nM; at MMP-13 (setting [2]), 28.8 nM; on MMP-1 (setting [3]) it was above 10000 nM.

Take `O=C(NO)C1(S(=O)(=O)c2ccc(N3CCc4ccccc4C3)cc2)CCN(C2CC2)CC1` [Example 455]: the IC50 on MMP-2 (setting [1]) is 26.8 nM; at MMP-13 (setting [2]), 6.3 nM; on MMP-1 (setting [3]), above 10000 nM.

For `O=C(NO)C1(S(=O)(=O)c2ccc(N3CCC(OCc4ccc(COCC(F)(F)F)cc4)CC3)cc2)CCOCC1` [Example 607], the IC50 on MMP-2 (setting [1]) was 220 nM; at MMP-13 (setting [2]), 2.9 nM; at MMP-1 (setting [3]), above 10000 nM.

`COCCN1CCC(C(=O)NO)(S(=O)(=O)c2ccc(N3CCC(C(=O)N(C)CCc4ccccn4)CC3)cc2)CC1` [Example 235, 1-[4-[[4[(Hydroxyamino)carbonyl]-1-(2-methoxyethyl)-4-piperidinyl]sulfonyl]phenyl]-N-methyl-N-[2-(2-pyridinyl)ethyl]-4-piperidinecarboxamide, Dihydrochloride]: the figures for the 50% inhibitory concentration (IC50) on MMP-2 (setting [1]), at MMP-13 (setting [2]) and at MMP-1 (setting [3]) were 5300 nM, 235 nM and above 10000 nM, respectively.

As to `CCCCCOc1ccc(COC2CCN(c3ccc(S(=O)(=O)C4(C(=O)NO)CCOCC4)cc3)CC2)cc1` [Example 477], the IC50 on MMP-2 (setting [1]) was 160 nM; on MMP-13 (setting [2]), 11.3 nM; at MMP-1 (setting [3]) it was above 10000 nM.

In the case of `O=C(NO)C1(S(=O)(=O)c2ccc(N3CCC(n4cnc5ccccc54)CC3)cc2)CCOCC1` [Example 475], the IC50 is 500 nM on MMP-2 (setting [1]), 27.1 nM at MMP-13 (setting [2]) and above 10000 nM on MMP-1 (setting [3]).

For the compound `O=C(NO)C1(S(=O)(=O)c2ccc(Oc3ccncc3)cc2)CCS(=O)(=O)CC1` [Example 160], the IC50 was 90 nM at MMP-2 (setting [1]), 300 nM on MMP-13 (setting [2]) and above 10000 nM at MMP-1 (setting [3]).

Regarding `O=C(Nc1cccnc1)OC1CCN(c2ccc(S(=O)(=O)C3(C(=O)NO)CCOCC3)cc2)CC1` [Example 465], the IC50 on MMP-2 (setting [1]) was 370 nM; on MMP-13 (setting [2]), 80 nM; at MMP-1 (setting [3]), above 10000 nM.

Take `O=C(NO)C1(S(=O)(=O)c2ccc(N3CC[C@@H](OCc4ccc(F)cc4)C3)cc2)CCOCC1` [Example 531]: the results for the IC50 at MMP-2 (setting [1]), on MMP-13 (setting [2]) and at MMP-1 (setting [3]) were 10 nM, 13 nM and above 10000 nM, respectively.

With `COc1ccc(C2CCN(c3ccc(S(=O)(=O)C4(C(=O)NO)CCOCC4)cc3)CC2)c(C)c1` [Example 823], the IC50 was 505 nM at MMP-2 (MMP-2 IC50 (nM)), 7 nM on MMP-13 (MMP-13 IC50 (nM)) and above 10000 nM at MMP-1 (setting [3]).

For the compound `CCC(C)CCOCc1ccc(COC2CCN(c3ccc(S(=O)(=O)C4(C(=O)NO)CCOCC4)cc3)CC2)cc1` (stereo not drawn) [Example 603], the IC50 at MMP-2 (setting [1]) was 2300 nM; at MMP-13 (setting [2]), 15.8 nM; on MMP-1 (setting [3]) it was above 10000 nM.

Consider `Cc1ccc(COC2CCN(c3ccc(S(=O)(=O)C4(C(=O)NO)CCOCC4)cc3)CC2)cc1` [Example 172], for which the IC50 was 160 nM on MMP-2 (setting [1]), 3.8 nM at MMP-13 (setting [2]) and above 10000 nM on MMP-1 (setting [3]).

For the compound `CC1CC(C)CN(C(=O)C2CCN(c3ccc(S(=O)(=O)C4(C(=O)NO)CCN(C(=O)Cn5ccnc5)CC4)cc3)CC2)C1` (stereo not drawn) [Example 279], the values for the IC50 at MMP-2 (setting [1]), at MMP-13 (setting [2]) and at MMP-1 (setting [3]) were 7300 nM, 20 nM and above 10000 nM, respectively.

Turning to `COc1ccc(C(=O)C2CCN(c3ccc(S(=O)(=O)C4(C(=O)NO)CCN(C(=O)OCc5ccccc5)CC4)cc3)CC2)cc1` [Example 435], the IC50 is 1500 nM at MMP-2 (setting [1]), 5.9 nM at MMP-13 (setting [2]) and above 10000 nM on MMP-1 (setting [3]).
